In ChEMBL document CHEMBL1201862, “PubChem BioAssay data set” (2004):
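Cells were grown in 96-well plates and exposed to each compound for 48 hours at five concentrations; endpoints were interpolated linearly between bracketing concentrations, or set to the highest concentration if not reached. GI50 = concentration required for 50% inhibition of growth.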 The source made the active and inactive calls. Rule as the data show it: active = GI50 up to about 1.1 µM and inactive = higher.

Assays:
Experiment in all cases: growth of human tumour cells (NCI), 48 h
786-0 = test system: 786-0
A498 = test system: A498
A549 = test system: A549
ACHN = test system: ACHN
BT-549 = test system: BT-549
CAKI-1 = test system: CAKI-1
CCRF-CEM = test system: CCRF-CEM
COLO 205 = test system: COLO 205
DU-145 = test system: DU-145
EKVX = test system: EKVX
HCC 2998 = test system: HCC 2998
HCT-116 = test system: HCT-116
HCT-15 = test system: HCT-15
HL-60 = test system: HL-60
HOP-62 = test system: HOP-62
HOP-92 = test system: HOP-92
HT-29 = test system: HT-29
Hs-578T = test system: Hs-578T
IGROV-1 = test system: IGROV-1
K562 = test system: K562
KM12 = test system: KM12
LOX IMVI = test system: LOX IMVI
M14 = test system: M14
MCF7 = test system: MCF7
MDA-MB-231 = test system: MDA-MB-231
MDA-MB-435 = test system: MDA-MB-435
MDA-N = test system: MDA-N
MOLT-4 = test system: MOLT-4
Malme-3M = test system: Malme-3M
NCI-H226 = test system: NCI-H226
NCI-H23 = test system: NCI-H23
NCI-H460 = test system: NCI-H460
NCI-H522 = test system: NCI-H522
NCI/ADR-RES = test system: NCI/ADR-RES
OVCAR-3 = test system: OVCAR-3
OVCAR-4 = test system: OVCAR-4
OVCAR-5 = test system: OVCAR-5
OVCAR-8 = test system: OVCAR-8
PC-3 = test system: PC-3
RXF 393 = test system: RXF 393
SF-268 = test system: SF-268
SF-295 = test system: SF-295
SF-539 = test system: SF-539
SK-MEL-28 = test system: SK-MEL-28
SK-MEL-5 = test system: SK-MEL-5
SK-OV-3 = test system: SK-OV-3
SN12C = test system: SN12C
SNB-19 = test system: SNB-19
SR = test system: SR
SW-620 = test system: SW-620
T47D = test system: T47D
TK-10 = test system: TK-10
U-251 = test system: U-251
UACC-257 = test system: UACC-257
UACC-62 = test system: UACC-62
UO-31 = test system: UO-31
RPMI-8226 = test system: RPMI-8226
SK-MEL-2 = test system: SK-MEL-2

OCC(CN1CCCCC1)(CN1CCCCC1)CN1CCCCC1
GI50 (786-0): > 100000 nM (inactive) | GI50 (A498): > 100000 nM (inactive) | GI50 (A549): > 100000 nM (inactive) | GI50 (ACHN): > 100000 nM (inactive) | GI50 (BT-549): > 100000 nM (inactive) | GI50 (CAKI-1): > 100000 nM (inactive) | GI50 (CCRF-CEM): > 100000 nM (inactive) | GI50 (COLO 205): > 100000 nM (inactive) | GI50 (DU-145): > 100000 nM (inactive) | GI50 (EKVX): > 100000 nM (inactive) | GI50 (HCC 2998): > 100000 nM (inactive) | GI50 (HCT-116): > 100000 nM (inactive) | GI50 (HCT-15): > 100000 nM | GI50 (HL-60): > 100000 nM (inactive) | GI50 (HOP-62): > 100000 nM (inactive) | GI50 (HOP-92): > 100000 nM (inactive) | GI50 (HT-29): > 100000 nM (inactive) | GI50 (Hs-578T): > 100000 nM (inactive) | GI50 (IGROV-1): > 100000 nM (inactive) | GI50 (K562): > 100000 nM (inactive) | GI50 (KM12): > 100000 nM (inactive) | GI50 (LOX IMVI): > 100000 nM (inactive) | GI50 (M14): > 100000 nM (inactive) | GI50 (MCF7): > 100000 nM (inactive) | GI50 (MDA-MB-231): > 100000 nM (inactive) | GI50 (MDA-MB-435): > 100000 nM (inactive) | GI50 (MDA-N): > 100000 nM (inactive) | GI50 (MOLT-4): > 100000 nM (inactive) | GI50 (Malme-3M): > 100000 nM (inactive) | GI50 (NCI-H226): > 100000 nM (inactive) | GI50 (NCI-H23): > 100000 nM (inactive) | GI50 (NCI-H460): > 100000 nM (inactive) | GI50 (NCI-H522): > 100000 nM (inactive) | GI50 (NCI/ADR-RES): > 100000 nM (inactive) | GI50 (OVCAR-3): > 100000 nM (inactive) | GI50 (OVCAR-4): > 100000 nM (inactive) | GI50 (OVCAR-5): > 100000 nM (inactive) | GI50 (OVCAR-8): > 100000 nM (inactive) | GI50 (PC-3): > 100000 nM (inactive) | GI50 (RXF 393): > 100000 nM (inactive) | GI50 (SF-268): > 100000 nM (inactive) | GI50 (SF-295): > 10000 nM (inactive) | GI50 (SF-539): > 100000 nM (inactive) | GI50 (SK-MEL-28): > 100000 nM (inactive) | GI50 (SK-MEL-5): > 100000 nM (inactive) | GI50 (SK-OV-3): > 100000 nM (inactive) | GI50 (SN12C): > 100000 nM (inactive) | GI50 (SNB-19): > 100000 nM (inactive) | GI50 (SR): > 100000 nM (inactive) | GI50 (SW-620): > 100000 nM (inactive) | GI50 (T47D): > 100000 nM (inactive) | GI50 (TK-10): > 100000 nM (inactive) | GI50 (U-251): > 100000 nM (inactive) | GI50 (UACC-257): > 100000 nM (inactive) | GI50 (UACC-62): > 100000 nM (inactive) | GI50 (UO-31): > 100000 nM (inactive)

CN(C)CCn1c(=O)c2ccc3c4c(nn3CCN(C)C)c3cc([N+](=O)[O-])ccc3n(c1=O)c24
GI50 (786-0): < 12.4 nM (active) | GI50 (A498): 317 nM (active) | GI50 (A549): 26.4 nM (active) | GI50 (ACHN): 38.4 nM (active) | GI50 (BT-549): 906 nM (active) | GI50 (CAKI-1): 48.1 nM (active) | GI50 (CCRF-CEM): < 12.5 nM (active) | GI50 (COLO 205): 54.8 nM (active) | GI50 (DU-145): 50.8 nM (active) | GI50 (EKVX): 115 nM (active) | GI50 (HCC 2998): 41.1 nM (active) | GI50 (HCT-116): < 15.4 nM (active) | GI50 (HCT-15): 26.1 nM | GI50 (HL-60): 90 nM (active) | GI50 (HOP-62): < 21.2 nM (active) | GI50 (HOP-92): 800 nM (active) | GI50 (HT-29): < 11.2 nM (active) | GI50 (Hs-578T): 144 nM (active) | GI50 (IGROV-1): 70.8 nM (active) | GI50 (K562): 39.4 nM (active) | GI50 (KM12): 26.3 nM (active) | GI50 (LOX IMVI): 44.7 nM (active) | GI50 (M14): 222 nM (active) | GI50 (MCF7): 66.7 nM (active) | GI50 (MDA-MB-231): 92.9 nM (active) | GI50 (MDA-MB-435): 67.5 nM (active) | GI50 (MDA-N): 72.4 nM (active) | GI50 (MOLT-4): < 10 nM (active) | GI50 (Malme-3M): 328 nM (active) | GI50 (NCI-H226): 518 nM (active) | GI50 (NCI-H23): 105 nM (active) | GI50 (NCI-H460): < 12.8 nM (active) | GI50 (NCI-H522): < 10 nM (active) | GI50 (NCI/ADR-RES): 85.9 nM (active) | GI50 (OVCAR-3): 88.3 nM (active) | GI50 (OVCAR-4): 18.9 nM (active) | GI50 (OVCAR-5): < 25.3 nM (active) | GI50 (OVCAR-8): 49 nM (active) | GI50 (PC-3): 64.1 nM (active) | GI50 (RPMI-8226): 19.4 nM (active) | GI50 (RXF 393): 120 nM (active) | GI50 (SF-268): < 25.6 nM (active) | GI50 (SF-295): 58.5 nM (active) | GI50 (SF-539): 394 nM (active) | GI50 (SK-MEL-28): 510 nM (active) | GI50 (SK-MEL-2): 133 nM (active) | GI50 (SK-MEL-5): 594 nM (active) | GI50 (SK-OV-3): 78.3 nM (active) | GI50 (SN12C): < 20.7 nM (active) | GI50 (SNB-19): 43.8 nM (active) | GI50 (SR): < 10 nM (active) | GI50 (SW-620): < 13.4 nM (active) | GI50 (T47D): 249 nM (active) | GI50 (TK-10): 212 nM (active) | GI50 (U-251): 28.1 nM (active) | GI50 (UACC-257): 617 nM (active) | GI50 (UACC-62): 337 nM (active) | GI50 (UO-31): 66.1 nM (active)
